Measurements from US20030144249A1, “Use of organophosphorous compounds for producing a medicament for treating infections” (priority 2000, published 2003).

What was measured:
[1] = system: Plasmodium falciparum; assay: Antimalarial activity, in vitro culture, [3H]-hypoxanthine incorporation; assay type: cell-based; conditions: 72 h, asynchronous culture, 48 h + 24 h with [3H]-hypoxanthine, read-out: IC50 (nM) of malaria culture (Plasmodium falciparum)
Experimental: The antimalarial activity of substances 1 to 8 (see page 5) was determined using in vitro cultures of the causative organism of malaria, Plasmodium falciparum. 200 μl of an asynchronous Plasmodium falciparum culture with a 0.4% blood parasite content and a heamatocrit of 2% were loaded into each of the wells of a 96 well microtitre plate. A serial dilution series of the compounds was then prepared in steps of three between concentrations of 100 and 0.14 μmol l^−1. The plates were incubated at 37° C., 3% CO2 and 5% O2 over a period of 48 hours. 30 μl of medium supplemented with 27 μCi ml^−1 of [^3H]-hypoxanthine were then added to each well. After 24 hours' incubation, the parasites were harvested by filtration through glass fibre filters and the incorporated radioactivity was measured. Inhibition of parasite growth was measured as the percentage inhibition of tritium incorporation. Inhibition of parasite growth was expressed as the percentage inhibition of tritium incorporation relative to a comparison without the substance. The median inhibitory concentration (IC50) of the substance was determined by extrapolating the values.

[2] = system: Galium aperine; assay: Herbicidal activity, soil, post-emergence; assay type: in vivo; conditions: Soil, post-emergence, 500 gram/hectare
Experimental: (§1) Herbicidal activity is determined using standard methods.
(§2) Substances 1 to 8 listed on page 5 are again investigated.

[3] = system: Abutilon theophrasti; assay: Herbicidal activity, soil, post-emergence; assay type: in vivo; conditions: Soil, post-emergence, 500 gram/hectare
Experimental: as §1, §2

[4] = system: Beta vulgaris; assay: Herbicidal activity, soil, post-emergence; assay type: in vivo; conditions: Soil, post-emergence, 500 gram/hectare
Experimental: as §1, §2

[5] = system: Setaria viridis; assay: Herbicidal activity, soil, post-emergence; assay type: in vivo; conditions: Soil, post-emergence, 500 gram/hectare
Experimental: as §1, §2

[6] = system: Cyperus esculentus; assay: Herbicidal activity, soil, post-emergence; assay type: in vivo; conditions: Soil, post-emergence, 500 gram/hectare
Experimental: as §1, §2

[7] = system: Alopecurus myosuroides; assay: Herbicidal activity, soil, post-emergence; assay type: in vivo; conditions: Soil, post-emergence, 500 gram/hectare
Experimental: as §1, §2

[8] = system: Amaranthus retroflexus; assay: Herbicidal activity, soil, post-emergence; assay type: in vivo; conditions: Soil, post-emergence, 500 gram/hectare
Experimental: as §1, §2

[9] = system: Avena fatua; assay: Herbicidal activity, soil, post-emergence; assay type: in vivo; conditions: Soil, post-emergence, 500 gram/hectare
Experimental: as §1, §2

[10] = system: Zea mays; assay: Herbicidal activity, soil, post-emergence; assay type: in vivo; conditions: Soil, post-emergence, 500 gram/hectare
Experimental: as §1, §2

[11] = system: Xanthium strumarium; assay: Herbicidal activity, soil, post-emergence; assay type: in vivo; conditions: Soil, post-emergence, 500 gram/hectare
Experimental: as §1, §2

[12] = system: Sinapis arvensis; assay: Herbicidal activity, soil, post-emergence; assay type: in vivo; conditions: Mutarda arvensis; Soil, post-emergence; 500 gram/hectare
Experimental: as §1, §2

[13] = system: Rice; assay: Herbicidal activity, water, pre-emergence; assay type: in vivo; conditions: Oryza sativa, Water, 1000 gram/hectare
Experimental: as §1, §2

[14] = system: Lepidium; assay: Herbicidal activity, water, pre-emergence; assay type: in vivo; conditions: Water, 1000 gram/hectare
Experimental: as §1, §2

[15] = system: Echinochloa; assay: Herbicidal activity, water, pre-emergence; assay type: in vivo; conditions: Water, 1000 gram/hectare
Experimental: as §1, §2

[16] = system: Solanum; assay: Herbicidal activity, water, pre-emergence; assay type: in vivo; conditions: Water, 1000 gram/hectare
Experimental: as §1, §2

[17] = target: T1, DOXP reductoisomerase from Helicobacter pylori (Helicobacter pylori, UniProt P56139); assay: DOXP reductoisomerase inhibition (NADPH oxidation at 365 nm); assay type: biochemical; conditions: recombinant enzyme; 0.3 mM NADPH, 1 mM DOXP, pH 7.5; read-out: IC50 (nM) of DOXP reductoisomerase from Helicobacter pylori
T1 construct: made in house; host or cells: Helicobacter pylori (so in the source)
T1 sequence (P56139 1-368): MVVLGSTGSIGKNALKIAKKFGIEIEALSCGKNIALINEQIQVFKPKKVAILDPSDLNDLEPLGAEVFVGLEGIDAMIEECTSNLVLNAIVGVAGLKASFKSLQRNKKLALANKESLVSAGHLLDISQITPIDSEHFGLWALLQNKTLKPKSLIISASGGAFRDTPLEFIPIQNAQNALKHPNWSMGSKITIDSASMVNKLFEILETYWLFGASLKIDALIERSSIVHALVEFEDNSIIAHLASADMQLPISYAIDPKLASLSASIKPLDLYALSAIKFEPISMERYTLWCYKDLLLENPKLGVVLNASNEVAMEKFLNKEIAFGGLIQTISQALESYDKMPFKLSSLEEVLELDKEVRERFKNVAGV
Experimental: The DOXP reductoisomerase of Helicobacter pylori was expressed as a recombinant protein in Helicobacter pylori. The activity of DOXP reductoisomerase was determined in a batch containing 100 mM tris-HCl (pH=7.5), 1 mM MnCl2, 0.3 mM NADPH and 1 mM DOXP.
The oxidation of NADPH was here measured at 365 nm in a spectrophotometer. The inhibition studies were performed by measuring the activity of DOXP reductoisomerase in the presence of compounds 1 to 8 (see page 5) at various concentrations between 0. 1 and 100 μmol l^−1.

[18] = system: Galium aperine; assay: Herbicidal activity, soil, pre-emergence; assay type: in vivo; conditions: Soil, pre-emergence, 500 gram/hectare
Experimental: as §1, §2

[19] = system: Abutilon theophrasti; assay: Herbicidal activity, soil, pre-emergence; assay type: in vivo; conditions: Soil, pre-emergence, 500 gram/hectare
Experimental: as §1, §2

[20] = system: Beta vulgaris; assay: Herbicidal activity, soil, pre-emergence; assay type: in vivo; conditions: Soil, pre-emergence, 500 gram/hectare
Experimental: as §1, §2

[21] = system: Setaria viridis; assay: Herbicidal activity, soil, pre-emergence; assay type: in vivo; conditions: Soil, pre-emergence, 500 gram/hectare
Experimental: as §1, §2

[22] = system: Cyperus esculentus; assay: Herbicidal activity, soil, pre-emergence; assay type: in vivo; conditions: Soil, pre-emergence, 500 gram/hectare
Experimental: as §1, §2

[23] = system: Alopecurus myosuroides; assay: Herbicidal activity, soil, pre-emergence; assay type: in vivo; conditions: Soil, pre-emergence, 500 gram/hectare
Experimental: as §1, §2

[24] = system: Amaranthus retroflexus; assay: Herbicidal activity, soil, pre-emergence; assay type: in vivo; conditions: Soil, pre-emergence, 500 gram/hectare
Experimental: as §1, §2

[25] = system: Avena fatua; assay: Herbicidal activity, soil, pre-emergence; assay type: in vivo; conditions: Soil, pre-emergence, 500 gram/hectare
Experimental: as §1, §2

[26] = system: Zea mays; assay: Herbicidal activity, soil, pre-emergence; assay type: in vivo; conditions: Soil, pre-emergence, 500 gram/hectare
Experimental: as §1, §2

[27] = system: Xanthium strumarium; assay: Herbicidal activity, soil, pre-emergence; assay type: in vivo; conditions: Soil, pre-emergence, 500 gram/hectare
Experimental: as §1, §2

[28] = system: Sinapis arvensis; assay: Herbicidal activity, soil, pre-emergence; assay type: in vivo; conditions: Mutarda arvensis; Soil, pre-emergence; 500 gram/hectare
Experimental: as §1, §2

Structure (SMILES) | IC50 [1] [nM] | pest or weed control at 500 g/ha [2] [%] | pest or weed control at 500 g/ha [3] [%] | plant injury at 500 g/ha [4] [%] | pest or weed control at 500 g/ha [5] [%] | pest or weed control at 500 g/ha [6] [%] | pest or weed control at 500 g/ha [7] [%] | pest or weed control at 500 g/ha [8] [%] | pest or weed control at 500 g/ha [9] [%] | plant injury at 500 g/ha [10] [%] | pest or weed control at 500 g/ha [11] [%] | pest or weed control at 500 g/ha [12] [%] | plant injury at 1000 g/ha [13] [%] | pest or weed control at 1000 g/ha [14] [%] | pest or weed control at 1000 g/ha [15] [%] | pest or weed control at 1000 g/ha [16] [%] | IC50 [17] [nM] | pest or weed control at 500 g/ha [18] [%] | pest or weed control at 500 g/ha [19] [%] | plant injury at 500 g/ha [20] [%] | other results
CCCC(=O)N(O)C(C)N(C)CC(O)P(C)(C)=O (centres unmarked) [Compound 1] | 580 | 60 | 40 | 50 | 95 | 0 | 60 | 0 | 50 | 80 | 60 | 95 | 40 | 50 | 70 | 0 | 80 | 0 | 0 | 30 | pest or weed control at 500 g/ha [21]: 0%; pest or weed control at 500 g/ha [22]: 0%; pest or weed control at 500 g/ha [23]: 40%; pest or weed control at 500 g/ha [24]: 0%; pest or weed control at 500 g/ha [25]: 0%; plant injury at 500 g/ha [26]: 0%; pest or weed control at 500 g/ha [27]: 0%; pest or weed control at 500 g/ha [28]: 40%
CP(C)(=O)CNCN(O)C(=O)c1ccccc1 [Compound 2, N-(N-Benzoyl-N-hydroxyaminomethyl)aminomethyldimethylphosphine oxide] | 420 | 60 | 50 | 50 | 90 | 0 | 60 | 0 | 70 | 70 | 50 | 80 | 30 | 30 | 0 | 0 | 60 | 0 | 0 | 50 | pest or weed control at 500 g/ha [21]: 0%; pest or weed control at 500 g/ha [22]: 0%; pest or weed control at 500 g/ha [23]: 0%; pest or weed control at 500 g/ha [24]: 0%; pest or weed control at 500 g/ha [25]: 0%; plant injury at 500 g/ha [26]: 0%; pest or weed control at 500 g/ha [27]: 0%; pest or weed control at 500 g/ha [28]: 60%
